pIC50: −log10 of the molar value. Like-named read-outs stand apart in the source and are kept apart here.
Molecular target: human RORgammaT-Ligand Binding Domain (LBD) (Homo sapiens (Human), UniProt P51449)
Assay: RORγ-Ligand Binding Domain TR-FRET assay (co-activator peptide SRC1_2 recruitment)
Type: biochemical
[1] = HIS-tagged RORγ-LBD 3 nM, biotinylated SRC1 LXXLL peptide 100 nM, incubated overnight at 4° C., 665 nm/615 nm signal quotient

human RORgammaT-Ligand Binding Domain (LBD), sequence (P51449 269-508): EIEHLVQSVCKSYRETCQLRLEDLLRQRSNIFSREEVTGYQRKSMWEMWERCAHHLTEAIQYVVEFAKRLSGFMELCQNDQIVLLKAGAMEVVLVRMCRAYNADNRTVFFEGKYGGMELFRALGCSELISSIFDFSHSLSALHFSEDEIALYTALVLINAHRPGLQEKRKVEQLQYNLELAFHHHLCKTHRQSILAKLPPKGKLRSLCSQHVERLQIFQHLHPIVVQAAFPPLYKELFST

SMILES	pIC50	pIC50 [1]
N#Cc1ccc(Cl)cc1Cn1nc(-c2ccc(C(=O)O)cc2F)c2ncccc21 [Example 1J, 4-[1-(5-chloro-2-cyanobenzyl)-1H-pyrazolo[4,3-b]pyridin-3-yl]-3-fluorobenzoic acid]	< 5.00	
CC(c1ccccc1C(F)(F)F)n1nc(-c2ccc(C(=O)O)cc2F)c2ncccc21 (stereo not shown) [Example 1K, 3-fluoro-4-(1-{1-[2-(trifluoromethyl)phenyl]ethyl}-1H-pyrazolo[4,3-b]pyridin-3-yl)benzoic acid]		< 5.00
O=C(O)c1ccc(-c2nn(Cc3c(F)ccc(F)c3F)c3cccnc23)c(F)c1 [Example 1N, 3-fluoro-4-[1-(2,3,6-trifluorobenzyl)-1H-pyrazolo[4,3-b]pyridin-3-yl]benzoic acid]		< 5.00
O=C(O)c1ccc(-c2nn(Cc3c(F)cccc3F)c3cccnc23)c(F)c1 [Example 1P, 4-[1-(2,6-difluorobenzyl)-1H-pyrazolo[4,3-b]pyridin-3-yl]-3-fluorobenzoic acid]		< 5.00

From US9556168B2, “N-alkylated indole and indazole compounds as RORgammaT inhibitors and uses thereof” (Merck Sharp & Dohme Corp., priority 2012, dated 2017)
